Measurements from patent US8198061B2, “Acetylcholinesterase gene responsible for insecticide resistance and applications thereof” (priority 2002, dated 2012).
pKd: −log10 of the molar value.

Key:
AChE = details: Abramson et al., Mol. Pharmacol., 1989, 36, 349; read-out: apparent affinity; cited from earlier work
C. pipiens larvae = experiment: Larval mortality on exposure to propoxur (back crosses, ace-1 linkage study); assay type: in vivo, Culex pipiens
Protocol: With the females being indicated first, F1 crosses (S×R) and back crosses (F1×S-LAB and S-LAB×F1) were obtained by mass crossing of adults. A few larvae derived from the back crosses were treated with a dose of carbamate (propoxur, 4 mg/l) which kills 100% of sensitive larvae. The linkage between ace-1 and propoxur resistance was studied by RFLP in the surviving larvae, based on a 320 bp PCR product making it possible to identify the S and R alleles. The experiments were carried out independently, with S=SA1, S=SA4 and S=EDIT.
The linkage between the ace-1 gene and propoxur resistance was studied, in triplicate, in the following way: larvae from a backcross (S×R)×S were treated for a dose that is lethal for sensitive individuals and the ace-1 genotype was analyzed in the survivors, by PCR-RFLP.

[1] = target: T1, Culex pipiens AChE1, resistant SR strain (serine at position 119, G119S) (Culex pipiens, UniProt Q86GC8, G247S); experiment: Acetylcholinesterase activity of recombinant resistant AChE1 (S2 cell extracts) with propoxur; assay type: biochemical; details: glycine247(119)→serine247(119) mutant (SR); 10^−4 M and 10^−2 M of propoxur; FIG. 10
T1 construct: The cDNAs encoding the AChE1s of, respectively, the strain S-LAB and the strain SR were cloned in the eukaryotic expression vector pAc5.1/V5-His; V5-His (from the vector pAc5.1/V5-His); made in house; host or cells: Drosophila Schneider S2 cells, transiently transfected; Triton X-100 cell extract, not purified
Description: (§1) The cDNAs encoding the AChE1s of, respectively, the strain S-LAB and the strain SR were cloned in the eukaryotic expression vector pAc5.1/V5-His (INVITROGEN), according to conventional recombinant DNA techniques, by following standard protocols such as those described in Current Protocols in Molecular Biology, mentioned above. Drosophila cells (Schneider S2 cells) were transfected with the recombinant vectors thus obtained, using the Fugen® reagent (ROCHE), according to the manufacturer's instructions. 24 hours after transfection, the cells were harvested by centrifugation and then lyzed in a 0.25M phosphate buffer containing 1% Triton X-100. The acetylcholinesterase activity of the cell extracts obtained was measured, in the presence or in the absence of insecticide (propoxur), by the method as described in Bourguet et al., Biochemical Genetics, 1996, 34, 351-362.
(§2) The recombinant AChE1s of, respectively, the strain S-LAB and the strain SR were expressed in insect cells and the acetylcholinesterase activity was measured using cell extracts as described in example 1.

[2] = target: T2, Culex pipiens AChE1, sensitive S-LAB strain (glycine at position 119) (Culex pipiens, UniProt Q86GC8); experiment: Acetylcholinesterase activity of recombinant sensitive AChE1 (S2 cell extracts) with propoxur; assay type: biochemical; details: 10^−3 M of propoxur
T2 construct: The cDNAs encoding the AChE1s of, respectively, the strain S-LAB and the strain SR were cloned in the eukaryotic expression vector pAc5.1/V5-His; V5-His (from the vector pAc5.1/V5-His); made in house; host or cells: Drosophila Schneider S2 cells, transiently transfected; Triton X-100 cell extract, not purified
Description: as §1, §2

Compound | pKd (AChE) | larvae killed in back crosses (C. pipiens larvae; larvae from backcross (S×R)×S, dose lethal for sensitive individuals, all back crosses) [%] | sensitive larvae killed (C. pipiens larvae; sensitive larvae, propoxur 4 mg/l) [%] | sensitivity of the acetylcholinesterase to the insecticide [1] | activity of the AChE1 inhibited [2] [%]
C=C1CCCC(C)(C)C1C/C=C(C=O)\C=C\OC(C)=O (centres unmarked) [onchidal] | 3.52 | – | – | – | –
CNC(=O)Oc1ccccc1OC(C)C [propoxur] | – | 50 | 100 | insensitive | 90
